# Measured values taken from patent US20100267561A1, “HERBICIDAL PYRIDAZINONE DERIVATIVES” (priority 2007, published 2010).
# Experiments:
# Type in all cases: in vivo
# [1] = tested on: giant foxtail (Setaria faberi); experiment: Test A pre-/postemergence plant response
# Summary of the method: (§1)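 Seeds in loam soil/sand blend treated preemergence by directed soil spray, with simultaneous postemergence spray on 2–10 cm plants at one- to two-leaf stage; compounds in non-phytotoxic solvent with surfactant. Injury visually rated versus untreated controls after about 10 days in greenhouse, 0 (no effect) to 100 (complete control).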
# corn (Zea mays) = experiment: Test A pre-/postemergence plant response
# Summary of the method: as §1
# [2] = tested on: yellow nutsedge (Cyperus esculentus); experiment: Test B pre-/postemergence plant response
# Summary of the method: (§2)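 Preemergence and postemergence (plants 2-18 cm, 1- to 4-leaf stage) applications used test chemicals in a non-phytotoxic solvent with surfactant. Plants were held in a greenhouse 13 to 15 days, then rated visually against controls on a 0-100 scale (0 no effect, 100 complete control).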
# [3] = tested on: bermudagrass (Cynodon dactylon); experiment: Test B pre-/postemergence plant response; conditions: for Bermudagrass plant response rating: 8 g ai/ha
# Summary of the method: as §2
# [4] = tested on: Italian ryegrass (Lolium multiflorum); experiment: Test B pre-/postemergence plant response
# Summary of the method: as §2
# kochia (Kochia scoparia) = experiment: Test B pre-/postemergence plant response
# Summary of the method: as §2
# [5] = tested on: johnsongrass (Sorghum halepense); experiment: Test B pre-/postemergence plant response
# Summary of the method: as §2
# [6] = tested on: eastern black (E.B.) nightshade (Solanum ptycanthum); experiment: Test B pre-/postemergence plant response; conditions: Preemergence
# Summary of the method: as §2
# soybean (Glycine max) = experiment: Test B pre-/postemergence plant response
# Summary of the method: as §2
# [7] = tested on: wheat (Triticum aestivum); experiment: Test B pre-/postemergence plant response
# Summary of the method: as §2
# [8] = tested on: velvetleaf (Abutilon theophrasti); experiment: Test B pre-/postemergence plant response
# Summary of the method: as §2
# [9] = tested on: common (oilseed) sunflower (Helianthus annuus); experiment: Test B pre-/postemergence plant response; conditions: Preemergence
# Summary of the method: as §2
# [10] = Postemergence, 31 g ai/ha, 0 to 100 scale, 0 no effect, 100 complete control
# [11] = Postemergence, 125 g ai/ha, 0 to 100 scale, 0 no effect, 100 complete control
# [12] = Preemergence, 31 g ai/ha, 0 to 100 scale, 0 is no effect, 100 is complete control
# [13] = Preemergence, 125 g ai/ha, 0 to 100 scale (0 no effect, 100 complete control)
# [14] = 8 g ai/ha, postemergence, 0-100 scale
# [15] = Postemergence, 16 g ai/ha, scale 0 to 100
# [16] = Postemergence, 31 g ai/ha, scale 0 to 100
# [17] = Postemergence, 62 g ai/ha, scale 0 to 100, 0 no effect, 100 complete control
# [18] = Preemergence, 31 g ai/ha, scale 0 to 100 (0 no effect, 100 complete control)
# [19] = Preemergence, 62 g ai/ha, scale 0 to 100
# [20] = Preemergence, 8 g ai/ha, scale 0 to 100
# [21] = Preemergence, 16 g ai/ha, scale 0 to 100
# [22] = Preemergence, scale 0 to 100 (0 no effect, 100 complete control)
# [23] = Preemergence, 16 g ai/ha, scale 0 to 100 (0 no effect, 100 complete control)
# [24] = Preemergence, 31 g ai/ha, 0 to 100 scale, 0 no effect, 100 complete control
# [25] = 31 g ai/ha, scale 0 to 100 (0 no effect, 100 complete control)
# [26] = Preemergence, 62 g ai/ha, 0 to 100 scale, 0 no effect, 100 complete control
compound,measurement,setting,value
Cc1cc(-c2ccc(Cl)cc2)nn1-c1c(OC(=O)c2cccs2)cnn(C)c1=O [Compound 52],"Plant response rating, Foxtail, Giant",[1]; [10],80
same,"Plant response rating, Foxtail, Giant",[1]; [11],90
same,"Plant response rating, Foxtail, Giant",[1]; [12],100
same,"Plant response rating, Foxtail, Giant",[1]; [13],100
same,"Plant response rating, Corn",corn (Zea mays); [10],30
same,"Plant response rating, Corn",corn (Zea mays); [11],100
same,"Plant response rating, Corn",corn (Zea mays); [12],0
same,"Plant response rating, Corn",corn (Zea mays); [13],70
same,"Nutsedge, Yellow plant response rating",[2]; [14],0
same,"Plant response rating, Nutsedge, Yellow",[2]; [15],0
same,"Plant response rating, Nutsedge, Yellow",[2]; [16],0
same,"Plant response rating, Nutsedge, Yellow",[2]; [17],0
same,"Plant response rating, Nutsedge, Yellow",[2]; [18],0
same,"Plant response rating, Nutsedge, Yellow",[2]; [19],0
same,"Nutsedge, Yellow plant response rating",[2]; [20],0
same,"Nutsedge, Yellow plant response rating",[2]; [21],0
same,Bermudagrass plant response rating,"[3]; postemergence, 0-100 scale",40
same,"Plant response rating, Bermudagrass",[3]; [15],98
same,"Plant response rating, Bermudagrass",[3]; [16],100
same,"Plant response rating, Bermudagrass",[3]; [17],100
same,Bermudagrass plant response rating,[3]; [22],0
same,"Plant response rating, Bermudagrass",[3]; [23],0
same,"Plant response rating, Bermudagrass",[3]; [24],0
same,"Plant response rating, Bermudagrass",[3]; [19],85
same,"Ryegrass, Italian plant response rating",[4]; [14],70
same,"Plant response rating, Ryegrass, Italian",[4]; [15],80
same,"Plant response rating, Ryegrass, Italian",[4]; [16],95
same,"Plant response rating, Ryegrass, Italian",[4]; [17],100
same,"Plant response rating, Ryegrass, Italian",[4]; [18],95
same,"Plant response rating, Ryegrass, Italian",[4]; [19],100
same,"Ryegrass, Italian plant response rating",[4]; [20],0
same,"Ryegrass, Italian plant response rating",[4]; [21],95
same,Kochia plant response rating,kochia (Kochia scoparia); [14],0
same,"Plant response rating, Kochia",kochia (Kochia scoparia); [15],0
same,"Plant response rating, Kochia",kochia (Kochia scoparia); [16],0
same,"Plant response rating, Kochia",kochia (Kochia scoparia); [17],0
same,"Plant response rating, Kochia",kochia (Kochia scoparia); [19],85
same,Kochia plant response rating,kochia (Kochia scoparia); [20],0
same,Kochia plant response rating,kochia (Kochia scoparia); [21],0
same,Johnsongrass plant response rating,[5]; [14],75
same,"Plant response rating, Johnsongrass",[5]; [15],80
same,"Plant response rating, Johnsongrass",[5]; [16],90
same,"Plant response rating, Johnsongrass",[5]; [17],95
same,"Plant response rating, Johnsongrass",[5]; [24],80
same,"Plant response rating, Johnsongrass",[5]; [19],85
same,Johnsongrass plant response rating,[5]; [20],55
same,Johnsongrass plant response rating,[5]; [21],65
same,"Plant response rating, Nightshade, E. B.",[6]; [25],0
same,"Plant response rating, Nightshade, E. B.","[6]; 62 g ai/ha, scale 0 to 100",0
same,"Nightshade, E. B. plant response rating","[6]; 8 g ai/ha, scale 0 to 100",0
same,"Nightshade, E. B. plant response rating","[6]; 16 g ai/ha, scale 0 to 100",0
same,Soybean plant response rating,soybean (Glycine max); [14],0
same,"Plant response rating, Soybean",soybean (Glycine max); [15],0
same,"Plant response rating, Soybean",soybean (Glycine max); [16],0
same,"Plant response rating, Soybean",soybean (Glycine max); [17],0
same,"Plant response rating, Soybean",soybean (Glycine max); [19],0
same,Soybean plant response rating,soybean (Glycine max); [20],0
same,Soybean plant response rating,soybean (Glycine max); [21],0
same,Wheat plant response rating,[7]; [14],0
same,"Plant response rating, Wheat",[7]; [15],50
same,"Plant response rating, Wheat",[7]; [16],70
same,"Plant response rating, Wheat",[7]; [17],85
same,"Plant response rating, Wheat",[7]; [18],20
same,"Plant response rating, Wheat",[7]; [26],50
same,Wheat plant response rating,[7]; [20],0
same,Wheat plant response rating,[7]; [21],0
same,Velvetleaf plant response rating,[8]; [14],0
same,"Plant response rating, Velvetleaf",[8]; [15],0
same,"Plant response rating, Velvetleaf",[8]; [16],0
same,"Plant response rating, Velvetleaf",[8]; [17],0
same,"Plant response rating, Velvetleaf",[8]; [18],0
same,"Plant response rating, Velvetleaf",[8]; [26],0
same,Velvetleaf plant response rating,[8]; [20],0
same,Velvetleaf plant response rating,[8]; [21],0
same,"Plant response rating, Sunflower",[9]; [25],0
same,"Plant response rating, Sunflower","[9]; 62 g ai/ha, scale 0 to 100",0
same,Sunflower plant response rating,"[9]; 8 g ai/ha, scale 0 to 100",0
same,Sunflower plant response rating,"[9]; 16 g ai/ha, scale 0 to 100",0
CCOC(=O)Oc1cnn(C)c(=O)c1-n1nc(-c2ccc(Cl)cc2)cc1C [Compound 53],"Plant response rating, Foxtail, Giant",[1]; [10],90
same,"Plant response rating, Foxtail, Giant",[1]; [11],100
same,"Plant response rating, Foxtail, Giant",[1]; [12],100
same,"Plant response rating, Foxtail, Giant",[1]; [13],100
same,"Plant response rating, Corn",corn (Zea mays); [10],80
same,"Plant response rating, Corn",corn (Zea mays); [11],90
same,"Plant response rating, Corn",corn (Zea mays); [12],0
same,"Plant response rating, Corn",corn (Zea mays); [13],70
same,"Nutsedge, Yellow plant response rating",[2]; [14],0
same,"Plant response rating, Nutsedge, Yellow",[2]; [15],0
same,"Plant response rating, Nutsedge, Yellow",[2]; [16],0
same,"Plant response rating, Nutsedge, Yellow",[2]; [17],0
same,"Plant response rating, Nutsedge, Yellow",[2]; [18],0
same,"Plant response rating, Nutsedge, Yellow",[2]; [19],0
same,"Nutsedge, Yellow plant response rating",[2]; [20],0
same,"Nutsedge, Yellow plant response rating",[2]; [21],0
same,Bermudagrass plant response rating,"[3]; postemergence, 0-100 scale",70
same,"Plant response rating, Bermudagrass",[3]; [15],100
same,"Plant response rating, Bermudagrass",[3]; [16],100
same,"Plant response rating, Bermudagrass",[3]; [17],100
same,Bermudagrass plant response rating,[3]; [22],0
same,"Plant response rating, Bermudagrass",[3]; [23],0
same,"Plant response rating, Bermudagrass",[3]; [24],0
same,"Plant response rating, Bermudagrass",[3]; [19],0
same,"Ryegrass, Italian plant response rating",[4]; [14],85
same,"Plant response rating, Ryegrass, Italian",[4]; [15],90
same,"Plant response rating, Ryegrass, Italian",[4]; [16],100
same,"Plant response rating, Ryegrass, Italian",[4]; [17],100
same,"Plant response rating, Ryegrass, Italian",[4]; [18],100
same,"Plant response rating, Ryegrass, Italian",[4]; [19],100
same,"Ryegrass, Italian plant response rating",[4]; [20],80
same,"Ryegrass, Italian plant response rating",[4]; [21],100
same,Kochia plant response rating,kochia (Kochia scoparia); [14],0
same,"Plant response rating, Kochia",kochia (Kochia scoparia); [15],0
same,"Plant response rating, Kochia",kochia (Kochia scoparia); [16],0
same,"Plant response rating, Kochia",kochia (Kochia scoparia); [17],0
same,"Plant response rating, Kochia",kochia (Kochia scoparia); [24],0
same,Johnsongrass plant response rating,[5]; [14],35
same,"Plant response rating, Johnsongrass",[5]; [15],70
same,"Plant response rating, Johnsongrass",[5]; [16],98
same,"Plant response rating, Johnsongrass",[5]; [17],100
same,"Plant response rating, Johnsongrass",[5]; [24],75
same,"Plant response rating, Johnsongrass",[5]; [19],100
same,Johnsongrass plant response rating,[5]; [20],45
same,Johnsongrass plant response rating,[5]; [21],65
same,"Plant response rating, Nightshade, E. B.",[6]; [25],15
same,"Plant response rating, Nightshade, E. B.","[6]; 62 g ai/ha, scale 0 to 100",20
same,"Nightshade, E. B. plant response rating","[6]; 8 g ai/ha, scale 0 to 100",0
same,"Nightshade, E. B. plant response rating","[6]; 16 g ai/ha, scale 0 to 100",0
same,Soybean plant response rating,soybean (Glycine max); [14],0
same,"Plant response rating, Soybean",soybean (Glycine max); [15],0
same,"Plant response rating, Soybean",soybean (Glycine max); [16],0
same,"Plant response rating, Soybean",soybean (Glycine max); [17],0
same,"Plant response rating, Soybean",soybean (Glycine max); [18],0
same,"Plant response rating, Soybean",soybean (Glycine max); [19],65
same,Soybean plant response rating,soybean (Glycine max); [20],0
same,Soybean plant response rating,soybean (Glycine max); [21],0
same,Wheat plant response rating,[7]; [14],5
same,"Plant response rating, Wheat",[7]; [15],55
same,"Plant response rating, Wheat",[7]; [16],85
same,"Plant response rating, Wheat",[7]; [17],85
same,"Plant response rating, Wheat",[7]; [18],0
same,"Plant response rating, Wheat",[7]; [26],55
same,Wheat plant response rating,[7]; [21],0
same,Velvetleaf plant response rating,[8]; [14],0
same,"Plant response rating, Velvetleaf",[8]; [15],0
same,"Plant response rating, Velvetleaf",[8]; [16],0
same,"Plant response rating, Velvetleaf",[8]; [17],0
same,"Plant response rating, Velvetleaf",[8]; [18],0
same,"Plant response rating, Velvetleaf",[8]; [26],0
same,Velvetleaf plant response rating,[8]; [20],0
same,Velvetleaf plant response rating,[8]; [21],0
same,"Plant response rating, Sunflower",[9]; [25],0
same,"Plant response rating, Sunflower","[9]; 62 g ai/ha, scale 0 to 100",0
same,Sunflower plant response rating,"[9]; 8 g ai/ha, scale 0 to 100",0
same,Sunflower plant response rating,"[9]; 16 g ai/ha, scale 0 to 100",0
